Values quoted from earlier work as cited in US20080293821A1, “Cooling compositions” (priority 2007, published 2008).

target: T1, recombinant cold-menthol receptor TRPM8 (mTRPM8) (Mus musculus, UniProt Q8R4D5); conditions: mTRPM8 expressed in HEK293 cells, FLIPR; British Journal of Pharmacology 141, 737-745 (2004)
T1 construct: host or cells: HEK293 cells (recombinant expression)
T1 sequence (Q8R4D5 whole entry): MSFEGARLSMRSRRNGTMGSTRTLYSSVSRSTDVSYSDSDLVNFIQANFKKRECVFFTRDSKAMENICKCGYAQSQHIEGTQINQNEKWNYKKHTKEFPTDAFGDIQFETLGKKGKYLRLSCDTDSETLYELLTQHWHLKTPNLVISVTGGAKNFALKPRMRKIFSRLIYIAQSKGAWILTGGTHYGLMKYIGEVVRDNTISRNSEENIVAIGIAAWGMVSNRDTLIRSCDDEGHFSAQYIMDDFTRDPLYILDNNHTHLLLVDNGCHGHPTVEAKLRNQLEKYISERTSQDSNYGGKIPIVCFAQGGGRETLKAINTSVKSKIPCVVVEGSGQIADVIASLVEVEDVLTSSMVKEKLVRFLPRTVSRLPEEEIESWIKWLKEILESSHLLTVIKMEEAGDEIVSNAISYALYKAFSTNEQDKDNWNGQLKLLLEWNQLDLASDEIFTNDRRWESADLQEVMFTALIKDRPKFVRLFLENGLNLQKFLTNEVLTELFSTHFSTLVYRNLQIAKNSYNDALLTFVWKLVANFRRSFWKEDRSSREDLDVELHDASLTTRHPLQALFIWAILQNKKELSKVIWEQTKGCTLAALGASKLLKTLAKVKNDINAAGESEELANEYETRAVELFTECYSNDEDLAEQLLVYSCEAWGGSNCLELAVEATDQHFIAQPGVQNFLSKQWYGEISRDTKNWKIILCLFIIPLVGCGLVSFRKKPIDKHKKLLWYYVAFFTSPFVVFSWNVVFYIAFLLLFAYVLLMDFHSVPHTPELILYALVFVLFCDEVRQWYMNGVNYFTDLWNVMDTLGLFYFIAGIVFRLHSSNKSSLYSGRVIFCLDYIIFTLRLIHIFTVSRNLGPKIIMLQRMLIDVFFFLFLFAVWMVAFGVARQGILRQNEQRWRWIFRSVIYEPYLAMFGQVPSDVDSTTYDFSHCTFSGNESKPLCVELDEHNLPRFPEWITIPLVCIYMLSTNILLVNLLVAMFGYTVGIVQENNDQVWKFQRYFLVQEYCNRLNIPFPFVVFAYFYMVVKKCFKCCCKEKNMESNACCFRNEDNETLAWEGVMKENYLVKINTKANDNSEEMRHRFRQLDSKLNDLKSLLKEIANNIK

| SMILES | agonist activity on TRPM8 |
| --- | --- |
| C=C(C)[C@@H]1CC[C@@H](C)C[C@H]1O [Coolact P] | agonists |
| CC1CCC(C(C)C)C(OCC(O)CO)C1 (stereo not shown) [Cooling Agent 10] | agonists |
| CC1CCC(C(C)C)C2(C1)OCC(CO)O2 (stereo not shown) [Frescolat MGA, 6-isopropyl-9-methyl-1,4-dioxaspiro-(4,5)-decane-2-methanol] | agonists |
| CC1CCC(C(C)C)C(OC(=O)C(C)O)C1 (stereo not shown) [Frescolat ML, menthyl lactate] | agonists |
| CCNC(=O)C1CC(C)CCC1C(C)C (stereo not shown) [WS-3, N-Ethyl-p-menthane-3-carboxamide] | agonists |

Continued, values first:

| agonist activity on TRPM8 | SMILES |
| --- | --- |
| agonists | C[C@@H]1CC[C@@H](C(C)(C)O)[C@H](O)C1 [PMD38] |
| agonists | CNC(=O)C(C)(C(C)C)C(C)C [WS-23, 2-Isopropyl-N,2,3-trimethylbutyramide] |
| agonists | CC(C)=CCC/C(C)=C/CO [geraniol] |
| agonists | CC(CC=O)CCCC(C)(C)O (stereo not shown) [hydroxycitronellal] |
| agonists | C=CC(C)(O)CCC=C(C)C (stereo not shown) [linalool] |
